Data taken from US6399319B1, “Protein kinase assay as a method for identification of fungicides” (Syngenta Crop Protection, Inc., priority 1996, dated 2002).

How the values were obtained:
[1] = tested on: protein kinase PK-II; assay: Protein kinase inhibition assay, PK-II fraction (protamine-sulfate, [γ-33P]ATP); type: biochemical, Neurospora crassa; conditions: 100 μM in the enzyme assay mixture; protamine-sulfate as substrate; relative to DMSO control (=0% inhibition)
Description: (§1) Mycelium from a stock culture of the wild-type strain 74-OR8-1, obtained from the American Type Culture Collection (ATCC 18889), is grown as inoculum in Petri dishes (d=9 cm) at 24° C. in the dark for 14 days (medium: Biomalt 10 g, Difco dry yeast extract 4 g, glucose 4 g and agar 20 g, in 1 l water). […]
(§2) Protein kinase activity is assayed in a reaction mixture containing in a final volume of […], 20 mM Tris-HCl (pH 7.4), 20 mg protamine-sulfate, 10 mM Mg(NO3)2, 10 mM ATP (0.2 mCi [g-^33P]ATP), 1 mM NaN3, 0.04 mM okadaic acid, […] of protein kinase. After 20 minutes incubation at 32° C., aliquots of […] are analyzed for substrate phosphorylation using P81 chromatography paper (20 mm×20 mm; Whatman, Maidstone, UK) according to the method described by J. J. Witt and R. Roskoski (Anal. Biochem., 66, 253-258, 1975). After washing the unbounded radioactivity with 75 mM phosphoric acid (3×15 min) and ethanol 94% (1×5 min) the radioactivity in the chromatography paper is counted in 5 ml ULTIMA GOLD LSC-cocktail (Packard Instrument, Zürich, Switzerland) using a Tri-Carb 2500 TR Packard Instrument. […]

[2] = tested on: protein kinase PK-III; assay: Protein kinase inhibition assay, PK-III fraction (protamine-sulfate, [γ-33P]ATP); type: biochemical, Neurospora crassa; conditions: 100 μM in the enzyme assay mixture; protamine-sulfate as substrate; relative to DMSO control (=0% inhibition)
Description: as §1, §2

Compound: N#Cc1c[nH]cc1-c1cccc(Cl)c1Cl [fenpiclonil, 4-(2,3-dichlorophenyl)pyrrole-3-carbonitrile]
- inhibition of protein kinase PK-II [1]: 67%
- inhibition of protein kinase PK-III [2]: 90%
